Among the data in BindingDB's records for patent US10065963 (Incyte Corporation, 2018) are IC50 values, retold here.

Experiment [1] concerns the target Tyrosine-protein kinase JAK1 (Homo sapiens, UniProt P23458). The experiment is described as follows: In Vitro JAK Kinase Assay. Conditions: pH 7.8; 25 °C.
Experiment [2] has as its target T1, Phosphatidylinositol 4,5-bisphosphate 3-kinase catalytic subunit delta isoform (Homo sapiens, UniProt O00329).
T1 sequence (O00329 whole entry): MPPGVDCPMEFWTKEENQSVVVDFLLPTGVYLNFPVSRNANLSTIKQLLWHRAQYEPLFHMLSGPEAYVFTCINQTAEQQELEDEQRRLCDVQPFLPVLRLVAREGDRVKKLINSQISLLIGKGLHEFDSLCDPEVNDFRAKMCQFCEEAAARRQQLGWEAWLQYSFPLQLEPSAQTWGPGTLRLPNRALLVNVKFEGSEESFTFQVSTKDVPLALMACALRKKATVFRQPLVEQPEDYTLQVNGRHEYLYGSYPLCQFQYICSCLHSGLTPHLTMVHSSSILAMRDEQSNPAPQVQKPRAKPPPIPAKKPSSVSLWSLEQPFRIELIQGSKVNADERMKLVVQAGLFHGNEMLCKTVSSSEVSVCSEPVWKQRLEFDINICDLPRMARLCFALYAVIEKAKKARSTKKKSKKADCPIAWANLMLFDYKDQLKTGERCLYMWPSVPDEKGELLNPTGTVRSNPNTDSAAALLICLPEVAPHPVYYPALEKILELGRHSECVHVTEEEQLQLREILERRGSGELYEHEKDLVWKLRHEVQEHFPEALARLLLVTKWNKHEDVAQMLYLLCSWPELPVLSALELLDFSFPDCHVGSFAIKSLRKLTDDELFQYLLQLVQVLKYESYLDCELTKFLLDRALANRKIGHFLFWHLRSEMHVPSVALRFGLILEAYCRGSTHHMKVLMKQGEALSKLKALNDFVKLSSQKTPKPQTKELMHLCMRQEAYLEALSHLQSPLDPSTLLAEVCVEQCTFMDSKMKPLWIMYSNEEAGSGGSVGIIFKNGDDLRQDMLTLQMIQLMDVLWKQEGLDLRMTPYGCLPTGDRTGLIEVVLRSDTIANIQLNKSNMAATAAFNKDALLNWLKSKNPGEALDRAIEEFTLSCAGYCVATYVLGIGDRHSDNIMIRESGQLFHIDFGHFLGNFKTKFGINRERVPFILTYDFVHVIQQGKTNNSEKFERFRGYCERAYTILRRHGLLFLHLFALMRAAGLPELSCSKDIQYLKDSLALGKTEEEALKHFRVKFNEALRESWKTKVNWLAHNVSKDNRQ
Kind of experiment: PI3K-delta Scintillation Proximity Assay. Conditions: pH 6.7; 25 °C. A general note: SPA uses beads or plates that emit light when radiolabelled molecules are held near them.

In experiment [3] the target is Phosphatidylinositol 4,5-bisphosphate 3-kinase catalytic subunit gamma isoform (Homo sapiens, UniProt P48736). Kind of experiment: PI3K-gamma Scintillation Proximity Assay. The note with it: pH 6.7; 25 °C. The method, then: PI3Kγ (p110γ) Recombinant Human Protein was purchased from Life technology (Grand Island, N.Y.). […] The final concentration of DMSO in the assay was 2%. […] ATP, 13 nM PI3Kγ. […] The final concentration of SPA beads is 1.0 mg/mL.
Sequence of Phosphatidylinositol 4,5-bisphosphate 3-kinase catalytic subunit gamma isoform (P48736 whole entry, canonical isoform): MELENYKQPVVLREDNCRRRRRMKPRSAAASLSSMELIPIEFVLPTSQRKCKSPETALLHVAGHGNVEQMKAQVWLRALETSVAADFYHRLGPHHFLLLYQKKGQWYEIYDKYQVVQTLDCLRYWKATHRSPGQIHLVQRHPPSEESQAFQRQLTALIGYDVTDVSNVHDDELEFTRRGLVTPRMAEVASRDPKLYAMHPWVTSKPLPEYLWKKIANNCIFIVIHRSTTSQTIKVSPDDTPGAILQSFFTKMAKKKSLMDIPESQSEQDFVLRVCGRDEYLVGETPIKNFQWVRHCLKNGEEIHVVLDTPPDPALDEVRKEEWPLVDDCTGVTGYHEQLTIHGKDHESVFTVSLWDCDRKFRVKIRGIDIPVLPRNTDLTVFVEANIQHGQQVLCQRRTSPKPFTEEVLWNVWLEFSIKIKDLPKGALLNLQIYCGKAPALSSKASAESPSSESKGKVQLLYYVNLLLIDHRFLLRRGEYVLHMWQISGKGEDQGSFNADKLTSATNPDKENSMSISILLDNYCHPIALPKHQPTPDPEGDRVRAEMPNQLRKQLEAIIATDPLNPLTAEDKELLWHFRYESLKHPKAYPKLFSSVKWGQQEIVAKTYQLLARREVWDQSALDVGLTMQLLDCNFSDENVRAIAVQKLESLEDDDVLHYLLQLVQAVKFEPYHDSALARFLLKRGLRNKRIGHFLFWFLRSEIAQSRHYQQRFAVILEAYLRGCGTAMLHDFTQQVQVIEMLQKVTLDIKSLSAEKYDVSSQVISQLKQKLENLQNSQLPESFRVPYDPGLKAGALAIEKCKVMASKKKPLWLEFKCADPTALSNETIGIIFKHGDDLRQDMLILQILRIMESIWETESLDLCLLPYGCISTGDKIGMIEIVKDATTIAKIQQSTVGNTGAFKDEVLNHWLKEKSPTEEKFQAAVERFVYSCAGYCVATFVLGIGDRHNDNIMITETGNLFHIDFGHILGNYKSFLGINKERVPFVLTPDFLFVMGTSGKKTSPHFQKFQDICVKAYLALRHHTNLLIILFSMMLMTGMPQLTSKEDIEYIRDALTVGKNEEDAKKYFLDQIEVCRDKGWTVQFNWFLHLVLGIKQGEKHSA

SMILES strings stand for the structures. Some results are limits rather than exact numbers.

Sequence of Tyrosine-protein kinase JAK1 (P23458 whole entry, canonical isoform): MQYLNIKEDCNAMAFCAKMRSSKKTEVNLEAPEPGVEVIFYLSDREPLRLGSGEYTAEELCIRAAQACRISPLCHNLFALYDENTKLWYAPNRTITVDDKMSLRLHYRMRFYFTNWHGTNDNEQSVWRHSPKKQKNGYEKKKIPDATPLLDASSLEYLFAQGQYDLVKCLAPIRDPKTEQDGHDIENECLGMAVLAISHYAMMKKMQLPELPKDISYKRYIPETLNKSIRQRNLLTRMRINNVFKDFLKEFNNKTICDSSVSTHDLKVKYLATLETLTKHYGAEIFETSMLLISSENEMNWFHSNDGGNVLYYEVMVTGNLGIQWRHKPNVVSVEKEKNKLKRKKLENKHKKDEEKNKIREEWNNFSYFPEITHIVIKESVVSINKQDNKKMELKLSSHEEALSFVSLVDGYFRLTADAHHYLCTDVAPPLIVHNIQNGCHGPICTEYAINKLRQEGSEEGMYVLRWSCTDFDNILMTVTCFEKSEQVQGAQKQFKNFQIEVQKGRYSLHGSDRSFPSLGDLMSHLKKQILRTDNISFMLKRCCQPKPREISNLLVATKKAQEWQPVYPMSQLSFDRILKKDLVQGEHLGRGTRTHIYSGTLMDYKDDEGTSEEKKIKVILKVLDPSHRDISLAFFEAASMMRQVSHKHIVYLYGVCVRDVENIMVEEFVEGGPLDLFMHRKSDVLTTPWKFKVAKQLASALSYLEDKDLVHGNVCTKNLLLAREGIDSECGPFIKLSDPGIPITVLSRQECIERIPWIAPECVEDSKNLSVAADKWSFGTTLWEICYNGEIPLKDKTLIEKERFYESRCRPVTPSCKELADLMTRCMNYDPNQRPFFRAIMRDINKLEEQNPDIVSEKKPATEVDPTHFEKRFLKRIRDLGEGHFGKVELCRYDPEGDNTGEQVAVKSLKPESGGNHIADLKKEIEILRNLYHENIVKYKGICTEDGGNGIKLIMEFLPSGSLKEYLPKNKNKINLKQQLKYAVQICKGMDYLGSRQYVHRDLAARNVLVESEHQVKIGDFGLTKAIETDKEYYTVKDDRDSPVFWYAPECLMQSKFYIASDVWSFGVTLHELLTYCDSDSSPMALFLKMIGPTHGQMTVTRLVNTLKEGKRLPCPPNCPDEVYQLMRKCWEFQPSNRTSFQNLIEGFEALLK

In general, IC50 refers to the concentration needed to halve the response being measured. Low values mean higher potency, high ones lower potency. On to `N#CCC(CN1CCN(C(=O)c2ccc(C#N)cc2F)CC1)n1cc(-c2ncnc3[nH]ccc23)cn1` (stereo not drawn) [US10065963, Compound 5], for which, in experiment [1], the IC50 is less than 0.1 µM.
On to `C[C@H](NC(=O)c1c(N)nn2cccnc12)c1cc(Cl)c2cncn2c1N1CCS(=O)(=O)[C@@H](C)C1` [US10065963, Example 31B], for which the half-inhibitory concentration (IC50) in experiment [2] and in experiment [3] was less than 0.1 µM each time.
